Measurements: patent US11053226B2, “KRAS G12C inhibitors and methods of using the same” (Amgen Inc., priority 2018, dated 2021)
Where two headings read alike, the source gives them in different places.

Experiments:
[1] = system: Phosphorylation of ERK1/2 in A549 cells; test: Phospho-ERK1/2 MSD Assay (A549); type: cell-based; details: Homo sapiens, A549, 4 h, read-out: pERK IC50 (4 h, A549), 4 h compound treatment
[2] = biological target: GDP-bound KRAS protein (aa 1-169), containing both G12C and C118A amino acid substitutions (Homo sapiens (Human), UniProt P01116, C118A/G12C); test: Coupled Nucleotide Exchange Assay; type: biochemical
Description: (§1) For compounds in Table 9, the following assay conditions were employed:
Coupled Nucleotide Exchange Assay:
The assay plates were then read on a PerkinElmer EnVision Multilabel Reader, using AlphaScreen® technology, and data were analyzed using a 4-parameter logistic model to calculate IC50 values.

[3] = system: Phosphorylation of ERK1/2 in MIA PaCa-2 cells; test: Phospho-ERK1/2 MSD Assay; type: cell-based; details: Homo sapiens, MIA PaCa-2, 4 h, read-out: pERK IC50 (4 h, MiaPaCa-2), 4 h compound treatment; MiaPaCa-2 cells
Description: as §1
Phospho-ERK1/2 MSD Assay:
Sixteen hours prior to compound treatment, MIA PaCa-2 cells were seeded in 96-well cell culture plates at a density of 25,000 cells/well and incubated at 37° C., 5% CO2. […] Following compound treatment, cells were stimulated with 10 ng/mL EGF (Roche 11376454001) for 10 min, washed with ice-cold Dulbecco's phosphate-buffered saline, no Ca^2+ or Mg^2+ (ThermoFisher Scientific 14190144), and then lysed in RIPA buffer (50 mM Tris-HCl pH 7.5, 1% Igepal, 0.5% sodium deoxycholate, 150 mM NaCl, and 0.5% sodium dodecyl sulfate) containing protease inhibitors (Roche 4693132001) and phosphatase inhibitors (Roche 4906837001). […] Assay plates were read on a Meso Scale Discovery Sector Imager 6000, and data were analyzed using a 4-parameter logistic model to calculate IC50 values.

[4] = first Coupled Exchange column, compound pre-incubation probably 5 min (rest of head not shown; b435 lists 5 min, 2 hours or 20 hours), read-out: Coupled Exchange IC50
[5] = third Coupled Exchange column, compound pre-incubation probably 20 hours (rest of head not shown; b435 lists 5 min, 2 hours or 20 hours), read-out: Coupled Exchange IC50

Chain of GDP-bound KRAS protein (aa 1-169), containing both G12C and C118A amino acid substitutions (P01116 other isoform, or with tags, fused parts or gaps G12C/C118A): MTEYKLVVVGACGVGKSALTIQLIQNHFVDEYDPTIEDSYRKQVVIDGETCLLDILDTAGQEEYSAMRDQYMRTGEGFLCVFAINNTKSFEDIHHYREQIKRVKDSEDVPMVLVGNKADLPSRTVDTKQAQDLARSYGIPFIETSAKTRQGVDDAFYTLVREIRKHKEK

| SMILES | IC50 [1] | IC50 [2, 4] | IC50 [2, 5] | further results |
| --- | --- | --- | --- | --- |
| C=CC(=O)N1CC(NC(=O)Cn2c(C3CC3)c(C(=O)N3CCc4c(cccc4OC)C3)c3cc(Cl)cc(C)c32)C1 [Example 1-7, 2-(5-Chloro-2-cyclopropyl-3-((5-methoxy-3,4-dihydro-2(1H)-isoquinolinyl)carbonyl)-7-methyl-1H-indol-1-yl)-N-(1-(2-propenoyl)-3-azetidinyl)acetamide] | 60.4 µM | – | – | – |
| C=CC(=O)N1CC(NC(=O)Cn2c(C)c(C(=O)N3CCc4c(cccc4OC)C3)c3cc(Cl)cc(C)c32)C1 [Example 3-1, 2-(5-Chloro-3-((5-methoxy-3,4-dihydro-2(1H)-isoquinolinyl)carbonyl)-2,7-dimethyl-1H-indol-1-yl)-N-(1-(2-propenoyl)-3-azetidinyl)acetamide] | > 100 µM | – | – | – |
| C=CC(=O)N1CC(N(C)C(=O)Cn2cc(C(=O)N3CCc4c(ccnc4OC)C3)c3c(Cl)c(Cl)ccc32)C1 [Example 7] | – | – | – | IC50 ([2]; read-out: Coupled Exchange IC50 (2 h), 2 h compound pre-incubation): 0.45 µM; IC50 [3]: 1.33 µM |
| C=CC(=O)N1CC(NC(=O)Cn2c(C)c(C(=O)N3CCN(c4ccc(C#N)cn4)C[C@H]3C)c3cc(Br)ccc32)C1 [Example 16] | > 100 µM | – | – | IC50 [3]: 1.79 µM |
| C=CC(=O)N1CC(NC(=O)Cn2c(C3CC3)c(C(=O)N3CCC(C)(C)C3)c3cc(Cl)cc(C)c32)C1 [Example 20] | > 100 µM | – | – | IC50 [3]: 1.94 µM |
| C=CC(=O)N1CC(NC(=O)Cn2c(C)c(C(=O)N3CCN(c4ccc(C)cn4)CC3)c3cc(Cl)cc(C)c32)C1 [Example 24] | > 100 µM | – | – | – |
| C=CC(=O)N1CC(NC(=O)Cn2c(C)c(C(=O)N3C(C)COCC3C)c3cc(Br)cc(C)c32)C1 (stereo not shown) [Example 26] | > 33.3 µM | – | – | IC50 [3]: 2.48 µM |
| C=CC(=O)N1CC(NC(=O)Cn2c(C)c(C(=O)N3CCN(c4ccc(C)cn4)CC3)c3cc(Br)ccc32)C1 [Example 29] | > 100 µM | – | – | IC50 [3]: 2.66 µM |
| C=CC(=O)N1CC(NC(=O)Cn2c(C3CC3)c(C(=O)N3CCOC(C)(c4ccccc4)C3)c3cc(Cl)cc(C)c32)C1 (stereo not shown) [Example 31] | > 100 µM | – | – | IC50 [3]: 2.7 µM |
| C=CC(=O)N1CC(NC(=O)Cn2c(C)c(C(=O)N3CCN(c4ccc(Br)cn4)CC3)c3cc(Br)ccc32)C1 [Example 34] | > 100 µM | – | – | IC50 [3]: 3.06 µM |
| C=CC(=O)N1CC(NC(=O)Cn2cc(C(=O)NCCOc3c(C)cccc3C)c3cc(Cl)cc(Cl)c32)C1 [Example 37] | > 100 µM | – | – | IC50 [3]: 3.33 µM |
| C=CC(=O)N1CC(NC(=O)Cn2c(C)c(C(=O)N3CCN(c4ccc(C(F)(F)F)cn4)CC3)c3cc(Br)ccc32)C1 [Example 40] | 44.6 µM | – | – | IC50 [3]: 3.42 µM |
| C=CC(=O)N1CC(N2CCC(n3c(C)c(C(=O)N4CCc5c(cccc5OC)C4)c4cc(Br)ccc43)C2=O)C1 (stereo not shown) [Example 42] | > 33.3 µM | – | – | IC50 [3]: 3.78 µM |
| C=CC(=O)N1CC(NC(=O)Cn2c(C)c(C(=O)N3CCc4c(cccc4OC)C3)c3cc(Br)ccc32)C1C (stereo not shown) [Example 44] | > 100 µM | – | – | – |
| C=CC(=O)N1CC(NC(=O)Cn2cc(C(=O)N3CCN(c4ccccn4)CC3)c3cc(Br)ccc32)C1 [Example 60] | > 100 µM | – | – | – |
| C=CC(=O)N1CC(NC(=O)Cn2cc(C(=O)N3CCc4c(cccc4OC)C3)c3cc(Br)cc(C)c32)C1 [Example 82] | > 100 µM | – | – | – |
| C=CC(=O)N1CC(NC(=O)Cn2cc(C(=O)N3CCc4c(Cl)cccc4C3)c3cc(Br)ccc32)C1 [Example 109] | 21.3 µM | – | – | – |
| C=CC(=O)N1CC(NC(=O)Cn2cc(C(=O)N3CCc4cc(F)ccc4C3)c3cc(Br)ccc32)C1 [Example 114] | > 100 µM | – | – | – |
| C=CC(=O)N1CC(NC(=O)Cn2cc(C(=O)N3CCc4c(F)cccc4C3)c3cc(Br)ccc32)C1 [Example 118] | > 100 µM | – | – | – |

| SMILES | IC50 [1] | IC50 [2, 4] | IC50 [2, 5] | further results |
| --- | --- | --- | --- | --- |
| C=CC(=O)N1CC(NC(=O)Cn2cc(C(=O)N3CCc4ccccc4C3)c3cc(Br)ccc32)C1 [Example 129] | > 100 µM | – | – | – |
| C=CC(=O)N1CC(NC(=O)Cn2cc(C(=O)NCCc3ccccc3)c3cc(Br)ccc32)C1 [Example 140] | > 100 µM | – | – | – |
| C=CC(=O)N1CC(NC(=O)Cn2cc(C(=O)N(C)Cc3ccccc3)c3cc(Br)ccc32)C1 [Example 155] | > 100 µM | – | – | – |
| C=CC(=O)N1CC(NC(=O)Cn2cc(C(=O)NCc3ccccc3)c3cc(Br)ccc32)C1 [Example 163] | > 100 µM | – | – | – |
| C=CC(=O)N1CC(NC(=O)Cn2cc(CC(=O)N3CCc4cn[nH]c4C3)c3cc(Br)ccc32)C1 [Example 332] | – | 43.3 µM | – | – |
| C=CC(=O)N1CC(NC(=O)Cn2cc(CC(=O)N3CC4CCC3C4)c3cc(Br)ccc32)C1 (stereo not shown) [Example 333] | – | 80.1 µM | – | – |
| C=CC(=O)N1CC(NC(=O)Cn2c(C)c(-c3cnccc3C3=CCC(C)CC3)c3cc(Cl)cc(C)c32)C1 (stereo not shown) [Example 334] | – | 0.37 µM | – | – |
| C=CC(=O)N1CC(NC(=O)Cn2c(C)c(-c3cnccc3C3=CCCCC3)c3cc(Cl)cc(C)c32)C1 [Example 335] | – | 0.8 µM | – | – |
| C=CC(=O)N1CC(NC(=O)Cn2c(C)c(-c3ccccc3Cc3ccccc3)c3cc(Cl)cc(C)c32)C1 [Example 336] | – | 2.11 µM | – | – |
| C=CC(=O)N1CC(N(C)C(=O)Cn2c(C)c(-c3cnccc3C3=CCCCC3)c3cc(Cl)cc(C)c32)C1 [Example 337] | – | 2.02 µM | – | – |
| C=CC(=O)N1CC(NC(=O)Cn2c(C)c(-c3cncnc3C(C)C)c3cc(Cl)cc(C)c32)C1 [Example 338] | – | 2.87 µM | – | – |
| C=CC(=O)N1CC(N(C)C(=O)Cn2c(C)c(-c3cncnc3C(C)C)c3cc(Cl)cc(C)c32)C1 [Example 339] | – | 2.88 µM | – | – |
| C=CC(=O)N1CC(NC(=O)Cn2c(C)c(-c3cnccc3C3=CCCCCC3)c3cc(Cl)cc(C)c32)C1 [Example 340] | – | 0.89 µM | – | – |
| C=CC(=O)N1CC(NC(=O)Cn2c(C)c(-c3cnccc3C3=CCOCC3)c3cc(Cl)cc(C)c32)C1 [Example 341] | – | 2.44 µM | – | – |
| C=CC(=O)N1CC(NC(=O)Cn2c(C)c(-c3cncnc3C3CCCCC3)c3cc(Cl)cc(C)c32)C1 [Example 342] | – | 0.66 µM | – | – |
| C=CC(=O)N1CC(NC(=O)Cn2c(C)c(-c3c(OC)cccc3OC)c3cc(Cl)cc(C)c32)C1 [Example 343] | – | 13.6 µM | – | – |
| C=CC(=O)N1CC(NC(=O)Cn2c(C)c(-c3cccnc3N3CCC(C)CC3)c3cc(Cl)cc(C)c32)C1 [Example 344] | – | 0.88 µM | – | – |
| C=CC(=O)N1CC(NC(=O)Cn2c(C)c(-c3cccnc3OCC(C)C)c3cc(Cl)cc(C)c32)C1 [Example 345] | – | 4.43 µM | – | – |
| C=CC(=O)N1CC(N(C)C(=O)Cn2ccc3cc(Br)ccc32)C1 [Example 346] | – | > 250 µM | 2.73 µM | – |

| SMILES | IC50 [1] | IC50 [2, 4] | IC50 [2, 5] | further results |
| --- | --- | --- | --- | --- |
| C=CC(=O)N1CC(NC(=O)Cn2c(C)cc3cc(Br)ccc32)C1 [Example 347] | – | > 250 µM | 1.47 µM | – |
| C=CC(=O)N1CC(N(C)C(=O)Cn2c(C)cc3cc(Br)ccc32)C1 [Example 348] | – | 235 µM | 1.22 µM | – |
| C=CC(=O)N1CC(NC(=O)Cn2ccc3c(C)c(Br)ccc32)C1 [Example 349] | – | > 250 µM | 3.21 µM | – |
| C=CC(=O)N1CC(N(C)C(=O)Cn2ccc3c(C)c(Br)ccc32)C1 [Example 350] | – | 237 µM | 1.53 µM | – |
| C=CC(=O)N1CC(N(C)C(=O)Cn2ccc3cc(Br)cc(C)c32)C1 [Example 351] | – | > 250 µM | 3.32 µM | – |
| C=CC(=O)N1CC(C)(NC(=O)Cn2ccc3cc(Br)ccc32)C1 [Example 352] | – | > 250 µM | 25 µM | – |
| C=CC(=O)N1CC(CO)(NC(=O)Cn2ccc3cc(Br)ccc32)C1 [Example 353] | – | 182 µM | 92.6 µM | – |
| C=CC(=O)N1CC(CO)(N(C)C(=O)Cn2ccc3cc(Br)ccc32)C1 [Example 354] | – | > 250 µM | > 62.5 µM | – |
| C=CC(=O)N1CC(N(C)C(=O)Cn2cc(C)c3cc(Br)ccc32)C1 [Example 355] | – | 155 µM | 1.7 µM | – |
| C=CC(=O)N1CC(C)(N(C)C(=O)Cn2ccc3cc(Br)ccc32)C1 [Example 356] | – | > 250 µM | > 31.3 µM | – |
| C=CC(=O)N1CC(N(C)C(=O)Cn2ccc3cc(Br)c(C)cc32)C1 [Example 357] | – | > 250 µM | 6.78 µM | – |
| C=CC(=O)N1CC(N(C)C(=O)Cn2ccc3cc(Cl)ccc32)C1 [Example 358] | – | > 250 µM | 3.2 µM | – |
| C=CC(=O)N1CC(n2nncc2Cn2ccc3cc(Br)ccc32)C1 [Example 359] | – | > 250 µM | 7.66 µM | – |
| C=CC(=O)N1CC(NC(=O)Cn2ccc3cccc(CC#N)c32)C1 [Example 360] | – | > 250 µM | > 250 µM | – |
| C=CC(=O)N1CC(NC(=O)Cn2ccc3cc(Br)ccc32)C1C (stereo not shown) [Example 361] | – | 231 µM | 3.04 µM | – |
| C=CC(=O)N1C[C@@H](NC(=O)Cn2ccc3cc(Br)ccc32)[C@H]1C [Example 362] | – | > 250 µM | > 250 µM | – |
| C=CC(=O)N1C[C@H](NC(=O)Cn2ccc3cc(Br)ccc32)[C@@H]1C [Example 363] | – | > 250 µM | 2.22 µM | – |
| C=CC(=O)N1C[C@H](N(C)C(=O)Cn2ccc3cc(Br)ccc32)[C@@H]1C [Example 364] | – | > 250 µM | 8.14 µM | – |
